What was measured:
BTK C481S protein = BTK C481S protein (Homo sapiens (Human), UniProt Q06187, C481S); assay: BTK C481S HTRF displacement assay; assay type: binding; settings: 1-hour incubation
Procedure, shortened: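 N-terminal GST-tagged BTK C481S (2-659) incubated 1 hour at room temperature with compound (6 doses, four-fold from 5 μM), 50 nM kinase tracer 239 and anti-GST-Tb antibody. TR-FRET 665/620 ratio, background-subtracted; IC50 from constrained four-parameter fit. KI=IC50/(1+[Tracer]/Kd), tracer Kd 54 nM.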

BTK wildtype protein = BTK wildtype protein (Homo sapiens (Human), UniProt Q06187); assay: BTK wildtype HTRF displacement assay; assay type: binding; settings: 1-hour incubation; read-out: BTK (wt) IC50
Sequence of BTK wildtype protein (Q06187 2-659): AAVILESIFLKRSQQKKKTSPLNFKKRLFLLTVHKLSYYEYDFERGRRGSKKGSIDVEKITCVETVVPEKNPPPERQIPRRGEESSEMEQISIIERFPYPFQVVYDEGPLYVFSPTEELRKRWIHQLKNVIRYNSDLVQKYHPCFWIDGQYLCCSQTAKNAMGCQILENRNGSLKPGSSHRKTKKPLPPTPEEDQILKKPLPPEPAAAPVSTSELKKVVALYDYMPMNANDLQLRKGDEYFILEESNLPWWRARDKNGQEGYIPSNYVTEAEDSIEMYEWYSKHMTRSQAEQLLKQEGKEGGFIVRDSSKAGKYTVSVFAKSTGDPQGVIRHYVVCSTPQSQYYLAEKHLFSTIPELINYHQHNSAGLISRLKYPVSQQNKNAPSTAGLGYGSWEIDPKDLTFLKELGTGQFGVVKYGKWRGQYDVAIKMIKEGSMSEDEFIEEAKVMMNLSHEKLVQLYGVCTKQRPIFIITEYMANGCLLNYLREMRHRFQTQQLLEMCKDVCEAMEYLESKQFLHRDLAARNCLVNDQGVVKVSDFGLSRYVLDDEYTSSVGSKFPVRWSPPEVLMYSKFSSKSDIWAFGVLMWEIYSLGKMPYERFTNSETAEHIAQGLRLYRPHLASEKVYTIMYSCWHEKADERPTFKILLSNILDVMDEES
Procedure, shortened: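 Full-length N-terminal GST-tagged BTK incubated 1 h at room temperature with compound (6 doses, four-fold dilutions from 5 μM top) plus kinase tracer 239 and anti-GST-Tb antibody. Tracer displacement read as TR-FRET 665/620 ratio, background-subtracted using no-protein control. IC50 from four-parameter fit constrained 0–100% inhibition.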

Sequence of BTK C481S protein (Q06187 2-659 C481S): as the sequence (Q06187 2-659) above, with C480S counted along it

| Compound | IC50 (BTK C481S protein) [µM] | IC50 (BTK wildtype protein) [µM] |
| --- | --- | --- |
| COc1ccc(F)cc1C(=O)NCc1ccc(-c2nn(-c3cc(N(C)C(=O)n4cncn4)ccc3C)c3ncnc(N)c23)cc1 [Compound 276, N-(3-(4-amino-3-(4-((5-fluoro-2-methoxybenzamido)methyl)phenyl)-1H-pyrazolo[3,4-d]pyrimidin-1-yl)-4-methylphenyl)-N-methyl-1H-1,2,4-triazole-1-carboxamide] | > 1 | ≤ 1 |
| COc1ccc(F)cc1C(=O)NCc1ccc(-c2nn(C3CCC(CN(C)C(=O)n4cncn4)C3)c3ncnc(N)c23)cc1 (stereo not drawn) [Compound 111, N-((3-(4-amino-3-(4-((5-fluoro-2-methoxybenzamido)methyl)phenyl)-1H-pyrazolo[3,4-d]pyrimidin-1-yl)cyclopentyl)methyl)-N-methyl-1H-1,2,4-triazole-1-carboxamide] | ≤ 1 | ≤ 1 |
| COc1ccc(F)cc1C(=O)NCc1ccc(-c2nn(C(CCN(C)C(=O)n3cncn3)C3CC3)c3ncnc(N)c23)cc1 (stereo not drawn) [Compound 161] | > 1 | ≤ 1 |
| COc1ccc(F)cc1C(=O)NCc1ccc(-c2nn(C[C@@H]3C[C@H](O)CN3C(=O)n3cncn3)c3ncnc(N)c23)cc1 [Compound 241, N-(4-(4-amino-1-(((2S,4S)-4-hydroxy-1-(1H-1,2,4-triazole-1-carbonyl)pyrrolidin-2-yl)methyl)-1H-pyrazolo[3,4-d]pyrimidin-3-yl)benzyl)-5-fluoro-2-methoxybenzamide] | ≤ 1 | ≤ 1 |
| CC(C)[C@H](C1CCNc2c(C(N)=O)c(-c3ccc(Oc4ccccc4)cc3)nn21)N(C)C(=O)n1cncn1 (stereo partly drawn) [Compound 242, 7-((R)-2-methyl-1-(N-methyl-1H-1,2,4-triazole-1-carboxamido)propyl)-2-(4-phenoxyphenyl)-4,5,6,7-tetrahydropyrazolo[1,5-a] pyrimidine-3-carboxamide] | > 1 | > 1 |
| COc1ccc(F)cc1C(=O)NCc1ccc(-c2nn(C[C@@H]3CCCCN3C(=O)n3cncn3)c3ncnc(N)c23)cc1 [Compound 274, (S)-N-(4-(1-((1-(1H-1,2,4-triazole-1-carbonyl)piperidin-2-yl)methyl)-4-amino-1H-pyrazolo[3,4-d]pyrimidin-3-yl)benzyl)-5-fluoro-2-methoxybenzamide] | ≤ 1 | ≤ 1 |
| COc1ccc(F)cc1C(=O)NCc1ccc(-c2nn(C3(CCN(C)C(=O)n4cncn4)CCC3)c3ncnc(N)c23)cc1 [Compound 213, N-(2-(1-(4-amino-3-(4-((5-fluoro-2-methoxybenzamido)methyl)phenyl)-1H-pyrazolo[3,4-d]pyrimidin-1-yl)cyclobutyl)ethyl)-N-methyl-1H-1,2,4-triazole-1-carboxamide] | ≤ 1 | ≤ 1 |
| CN(CCC1CCNc2c(-c3ccc(Oc4ccccc4)cc3)c(C(N)=O)nn21)C(=O)n1cncn1 (stereo not drawn) [Compound 167, 7-(2-(N-methyl-1H-1,2,4-triazole-1-carboxamido)ethyl)-3-(4-phenoxy-phenyl)-4,5,6,7-tetrahydro-pyrazolo[1,5-a]pyrimidine-2-carboxamide] | > 1 | > 1 |
| COc1ccc(F)cc1C(=O)NCc1ccc(-c2nn(C(Cc3ccccc3)CN(C)C(=O)n3cncn3)c3ncnc(N)c23)cc1 (stereo not drawn) [Compound 237, N-(2-(4-amino-3-(4-((5-fluoro-2-methoxybenzamido)methyl)phenyl)-1H-pyrazolo[3,4-d]pyrimidin-1-yl)-3-phenylpropyl)-N-methyl-1H-1,2,4-triazole-1-carboxamide] | > 1 | > 1 |

Reference: US20240294531A1, “COVALENT HETEROCYCLES AND USES THEREOF” (Kumquat Biosciences Inc., priority 2022, published 2024)
